The source of these data is patent publication US10301257B2, “Use of acylsulfonamides for improving plant yield” (BAYER INTELLECTUAL PROPERTY GMBH, priority 2011, dated 2019).

Each structure is given as a SMILES string.

Common to all, as to type: in vivo
In assay [1] the test system is spring oilseed rape (canola). As to the kind of experiment: Field trial: grain yield of spring oilseed rape (canola), postemergence CPA + tebuconazole (TBC). The source says:
(§1) The trials have been carried out under natural field conditions (plot trials, 10 square meter plots, 2-4 replications).
(§2) The applications have been done with seed treatment, pre- or post-emergence treatments straight (alone, 1 application) or sequential treatments e.g. seed treatment followed by pre-emergence and/or post-emergence spray applications. The pre- or post-emergence applications were made with spray applications using 100-300 I/water per hectare. The growth stage of the crops species at the time of application are reported in the result tables. The dose rates of the herbicidal active ingredients applied alone respective in sequential application are also described in the result tables.
(§3) The assessments have been done via visual ratings (0-100% scale) or counting. The trials have been harvested after crops reached the full maturity. After the harvest the total weight of kernels/seeds/beets per plot was measured. The results are reported as means over 2-4 replications. The time between applications and assessments or countings/harvest are described in the result tables as well.

A further assay concerns corn (maize). As to the kind of experiment: Field trial: grain yield of corn (maize) after seed treatment with Cyprosulfamide. To be noted: for Difference(%) vs. UTC / Relative %: corn (maize) grain yield; for Relative %: UTC = 100%; for Yield (grain yield at harvest): corn (maize), seed treatment prior planting, 110 days after planting (short season variety). The source says:
(§4) The trials have been carried out under natural field conditions (plot trials, 10 square meter plots, 2-4 replications). The applications have been done with seed treatment, pre- or post-emergence treatments straight (alone, 1 application) or sequential treatments e.g. seed treatment followed by pre-emergence and/or post-emergence spray applications. The pre- or post-emergence applications were made with spray applications using 100-300 I/water per hectare. The growth stage of the crops species at the time of application are reported in the result tables. The dose rates of the herbicidal active ingredients applied alone respective in sequential application are also described in the result tables. The assessments have been done via visual ratings (0-100% scale) or counting. The trials have been harvested after crops reached the full maturity. After the harvest the total weight of kernels/seeds/beets per plot was measured. The results are reported as means over 2-4 replications. The time between applications and assessments or countings/harvest are described in the result tables as well. The active ingredients have been applied to the untreated, dry seeds together with a carrier. After a short period of time to let the seeds dry, they were ready to be sown in the pot or field using standard equipments.

For a further assay, the system named is rice plants. As to the kind of experiment: Field trial: germination and emergence of rice plants after seed treatment with Cyprosulfamide.
Source text: as §4

Assay [2] deals with winter wheat. As to the kind of experiment: Field trial: grain yield of winter wheat, preemergence application of Cyprosulfamide.
Source text: as §1, §2, §3

The subject of assay [3] is spring wheat. As to the kind of experiment: Field trial: grain yield of spring wheat, postemergence application of Cyprosulfamide.
Source text: as §1, §2, §3

The subject of assay [4] is corn. As to the kind of experiment: Field trial: grain yield of corn, postemergence application of Cyprosulfamide.
Source text: as §1, §2, §3

For a further assay, the system named is cotton. As to the kind of experiment: Field trial: lint yield of cotton, postemergence application of Cyprosulfamide. To be noted: 100 g ai/ha.
Source text: as §1, §2, §3

Assay [5] relates to spring wheat. As to the kind of experiment: Field trial: gluten content of spring wheat grains, postemergence application of Cyprosulfamide. To be noted: 35 days after application.
Source text: as §1, §2, §3

Another assay deals with soybeans. As to the kind of experiment: Field trial: grain yield of soybeans, postemergence application of Cyprosulfamide. To be noted: 100 g ai/ha.
Source text: as §1, §2, §3

Assay [6] concerns canola. As to the kind of experiment: Field trial: grain yield of canola, sequential application of Cyprosulfamide.
Source text: as §4

Assay [7] concerns canola. As to the kind of experiment: Field trial: grain yield of canola, postemergence treatment with Cyprosulfamide.
Source text: as §1, §2, §3

Assay [8] relates to corn. As to the kind of experiment: Field trial: grain yield of corn, sequential application of Cyprosulfamide.
Source text: as §4

Assay [9] deals with corn. As to the kind of experiment: Field trial: biomass yield and plant density of corn, sequential application of Cyprosulfamide. The conditions noted are these: 0.15 g ai/kg seed fb 3 × 50 g ai/ha post, 98 days after emergence.
Source text: as §4

The subject of the next assay is sugarbeet. As to the kind of experiment: Field trial: sugar and beet yield of sugarbeet, sequential application of Cyprosulfamide. The conditions noted are these: 0.15 mg ai/seed fb 3 × 50 g ai/ha post, 44 days after last postemergence treatment.
Source text: as §4

Assay [10] relates to winter wheat. As to the kind of experiment: Field trial: grain yield (g/1000 kernel) of winter wheat, seed treatment with Cyprosulfamide. To be noted: 1 g ai/kg seed.
Source text: as §4

Another assay relates to rice. As to the kind of experiment: Field trial: grain yield of rice, sequential application of Cyprosulfamide.
Source text: as §4

Assay [11] relates to spring wheat. As to the kind of experiment: Field trial: grain yield of spring wheat, postemergence cyprosulfamide (CPA) + epoxiconazole (EPC).
Source text: as §1, §2, §3

Take `CC(C)(C)C(O)(CCc1ccc(Cl)cc1)Cn1cncn1` (centres unmarked) [TBC, tebuconazole]: in [1] (canola grain yield, TBC 150, CPA + TBC 100 + 150 g ai/ha), the “Difference(%) vs. UTC” value was “+1.8%”. In assay [1] (canola grain yield, TBC 150, CPA + TBC 100 + 150 g ai/ha, UTC = 100%), the Relative % is 101.8%. Further, the “Yield (grain yield at harvest)” value in assay [1] (spring oilseed rape (canola), post-emergence spring, beginning of flowering, TBC 150 g ai/ha, CPA + TBC 100 + 150 g ai/ha, 92 days after application, UTC 3.91) amounted to 3.91 t/ha.
Turning to `COc1ccccc1C(=O)NS(=O)(=O)c1ccc(C(=O)NC2CC2)cc1` [Cyprosulfamide, cyprosulfamide], the “Difference(%) vs. UTC” value was “+12%” in the assay with corn (maize) (0.15 mg ai/seed); “+13%” with corn (maize) (0.225 mg ai/seed); “+23%” in the assay on rice plants (rice plants/10 m^2, 0.5 g ai/kg seed); “+11%” in the assay with winter wheat [2] (winter wheat grain yield, 100 g ai/ha preemergence); “+8%” in the assay on spring wheat [3] (spring wheat grain yield, 100 g ai/ha postemergence); “+28%” in the assay on corn [4] (corn grain yield, 100 g ai/ha postemergence). The “Difference(%) vs. UTC” value is “+16%” in the assay with cotton (cotton lint yield); “+5%” in the assay with soybeans (soybean grain yield); “+24%” in the assay with canola [6] (canola grain yield, sequential application); “+19%” in the assay on canola [7] (canola grain yield, 100 g ai/ha postemergence); “+38%” in the assay with corn [8] (corn grain yield, sequential application); “+8%” in the assay on winter wheat [10] (winter wheat g/1000 kernel). In addition, the “Difference(%) vs. UTC” value with rice (rice grain yield, sequential application) is “+5%”. Moreover, the Relative % with corn (maize) (0.15 mg ai/seed) stood at 112%; in the assay on corn (maize) (0.225 mg ai/seed) it was 113%; in the assay with winter wheat [2] (winter wheat grain yield, 100 g ai/ha preemergence, UTC = 100%) it was 111%. The “Yield (grain yield at harvest)” value with corn (maize) (0.15 mg ai/seed) turned out to be 8.32 t/ha; with corn (maize) (0.225 mg ai/seed) it was 8.39 t/ha; in the assay on winter wheat [2] (winter wheat, preemergence autumn, 100 g ai/ha, 247 days after application), 5.88 t/ha; with spring wheat [3] (spring wheat, postemergence at beginning of emergence of the ears (GS49), 100 g ai/ha, 48 days after application), 3.83 t/ha; in the assay with corn [4] (corn, postemergence at 6-8 leaves, 100 g ai/ha, 130 days after application), 5.60 t/ha; in the assay on soybeans (soybeans, postemergence preflowering (GS 60), 45 days after application) it was 2.78 t/ha. Further, the “Yield (grain yield at harvest)” value in the assay on canola [6] (canola, 0.5 g ai/kg seed fb 3 × 50 g ai/ha post (4-6 leaves, stem elongation, beginning of flowering), 63 days after application) is recorded as 3.47 t/ha; in the assay on canola [7] (canola, postemergence GS 52 pre flowering, 100 g ai/ha, 63 days after treatment) it was 2.62 t/ha; with corn [8] (corn, 0.15 g ai/kg seed fb 3 × 50 g ai/ha post (2-4 leaves, 6-8 leaves, preflowering), 98 days after emergence) it was 14.1 t/ha; with winter wheat [10] (winter wheat, seed treatment prior planting, 290 days after planting), 39.2 g/1000 kernel; with rice (rice, 0.5 g ai/kg seed fb 3 × 50 g ai/ha post, 75 days after last application), 5.74 t/ha. The Relative in the assay with rice plants (rice plants/10 m^2, 0.5 g ai/kg seed, UTC = 100%) turned out to be 123%; in the assay with corn [4] (corn grain yield, 100 g ai/ha postemergence, UTC = 100%) it was 128%; in the assay with cotton (cotton lint yield, UTC = 100%) it was 116%; with soybeans (soybean grain yield, UTC = 100%), 105%; in the assay with canola [6] (canola grain yield, sequential application, UTC = 100%) it was 124%; with canola [7] (canola grain yield, 100 g ai/ha postemergence, UTC = 100%), 119%. Moreover, the Relative in the assay with corn [8] (corn grain yield, sequential application, UTC = 100%) came out at 138%; in the assay on winter wheat [10] (winter wheat g/1000 kernel, UTC = 100%), 108%; in the assay with rice (rice grain yield, sequential application, UTC = 100%) it was 105%. The “plants/10 m^2 (germination and emergence)” value in the assay on rice plants (rice, seed treatment 0.5 g ai/kg seed, 12 days after emergence) was 208 plants/10 m^2. Also, in the assay on cotton (cotton lints at harvest, postemergence preflowering (GS 55), 90 days after application), the “Yield t/ha (lint)” value is given as 0.254 t/ha. In the assay with spring wheat [5] (100 g ai/ha at ear emergence, UTC = 100%), the “Yield Relative: relative gluten content in harvested grains” value was determined as 109%. Also, the “Yield: gluten content (absolute) in harvested grains” value with spring wheat [5] (postemergence at ear emergence, 100 g ai/ha) was found to be 30.9. The “Yield: Biomass yield at harvest” value with corn [9] (UTC 6.0) came to 7.5 t/ha. Further, the “Yield: Plant density at harvest” value with corn [9] (UTC 14) was found to be 17.3 plants/sqm. Also, in the assay with sugarbeet (UTC 59.3), the “Yield of beets (storage root/body) by weight at harvest” value came to 61.3 t/ha. The “Sugar Yield at harvest” value in the assay with sugarbeet (UTC 5778) is 6110 kg/ha.
Consider `Fc1ccc([C@]2(Cn3cncn3)O[C@H]2c2ccccc2Cl)cc1` (racemic) [EPC, epoxiconazole], for which the “Difference(%) vs. UTC” value with spring wheat [11] (spring wheat grain yield, EPC 125, CPA + EPC 100 + 125 g ai/ha) is “+9.7%”. The Relative % in the assay with spring wheat [11] (spring wheat grain yield, EPC 125, CPA + EPC 100 + 125 g ai/ha, UTC = 100%) amounted to 109.7%^. Moreover, in the assay on spring wheat [11] (spring wheat, post-emergence spring, flag leaf sheath opening, EPC 125 g ai/ha, CPA + EPC 100 + 125 g ai/ha, 55 days after application, UTC 1.84), the “Yield (grain yield at harvest)” value is listed as 2.02 t/ha.
